Results on four compounds are retold here after patent publication US20210220295A1, “TREATMENT OF CANCER BY GUANIDINIUM DERIVATIVES” (priority 2018, published 2021).

For series [1] the following is noted: mouse, in vivo.
In series [2] the test system is MCF-7 brca1+/+cells. The settings on record: 10 μM, exposure for 10 consecutive days; cited from earlier work.
Series [3] has as its system CAPANI cells (which are deficient in brca2). The settings on record: cited from earlier work.

Turning to “poly-[2-(2-ethoxyethoxyethyl)guanidinium hydrochloride]”, the “tolerated dose, daily intravenous dosing regime” value in series [1] stood at 2.5 mg/kg body weight. Besides, the “tolerated dose, weekly basis” value in series [1] (iv) worked out at 5 mg/kg body weight. On to `CN(C)Cc1ccc(-c2nc3cccc4c3n2CCNC4=O)cc1` [AG14361], for which the “MCF-7 brca1+/+ cells eradicated” value in series [2] is recorded as 50%. `Cc1nc2c(O)cccc2c(=O)[nH]1` [NU1025]: the “inhibition of CAPANI cells” value in series [3] was “not inhibited”. Take `O=C1CCC(=O)N1c1cc(Cc2n[nH]c(=O)c3ccccc23)ccc1F` [KU0058684]: the “inhibition of CAPANI cells” value in series [3] was “inhibited”.
